We go through 18 compounds from US20250122219A1 (priority 2023, published 2025).

The structures appear in SMILES notation.

For data set [1], the system named is HIV-1 (IIIB). Nature of the data set: Antiviral assay in MT-4 cells. Particulars: Human immunodeficiency virus 1, MT4, 120 h; HIV-1 IIIB in MT-4 cells, 5 days incubation, Cell Titer Glo; read-out: MT4 EC50. The class given is cell-based. An outline of the steps:
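HIV-1 IIIB-infected MT-4 cells (fresh 1:250 virus stock dilution; mock-infected controls) incubated 5 days at 37 °C with serially diluted compounds in RPMI/10% FBS; 5 μM AZT as positive control. Cell viability read by CellTiter-Glo luminescence as measure of protection from viral replication.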
In general terms: In ATP-based viability assays light output follows the ATP content of the culture.

A short description of data set [2]: Cytotoxicity assay in MT-4 cells. Format: cell-based. Particulars: human; uninfected MT-4 cells, 5 days incubation, Cell Titer Glo; read-out: MT4 CC50. An outline of the steps: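 Uninfected MT-4 cells exposed to serially diluted compounds in RPMI with 10% FBS for 5 days at 37 °C. Viability by Cell Titer Glo chemiluminescence. Puromycin […] as baseline cytotoxicity control.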

For `CCCCCCCCCCCCCCCCCC(=O)OCOc1c2n(cc(C(=O)NCc3ccc(F)cc3F)c1=O)[C@@H]1CN(C2=O)[C@@H](C)CC[C@]12CC(OC)=NO2` [Example 106, (((3′S,5S,7′R)-10′-((2,4-difluorobenzyl)carbamoyl)-3-methoxy-3′-methyl-1′,11′-dioxo-1′,4′,5′,11′-tetrahydro-3′H,4H,7′H-spiro[isoxazole-5,6′-[2,7]methanopyrido[1,2-a][1,4]diazonin]-12′-yl)oxy)methyl stearate], the EC50 – broadly, the concentration giving half of the maximal effect – in data set [1] was 0.0272 µM. In addition, in data set [2], the CC50 (usually the concentration that lowers cell viability or growth by half) at 5 days was no less than 50 µM.

Regarding `CCCCCCCCCCCCCCCCCC(=O)OCOc1c2n(cc(C(=O)NCc3ccc(F)cc3F)c1=O)[C@@H]1CN(C2=O)[C@@H](C)CC[C@]12CC(C)=NO2` [Example 107, (((3′S,5S,7′R)-10′-((2,4-difluorobenzyl)carbamoyl)-3,3′-dimethyl-1′,11′-dioxo-1′,4′,5′,11′-tetrahydro-3′H,4H,7′H-spiro[isoxazole-5,6′-[2,7]methanopyrido[1,2-a][1,4]diazonin]-12′-yl)oxy)methyl stearate], in data set [1], the EC50 amounted to 0.0323 µM. The CC50 at 5 days in data set [2] was no less than 50 µM.

In the case of `COC1=NO[C@@]2(CC[C@H](C)N3C[C@H]2n2cc(C(=O)NCc4ccc(F)cc4F)c(=O)c(OCOC(=O)CC(C)C)c2C3=O)C1` [Example 110, (((3′S,5S,7′R)-10′-((2,4-difluorobenzyl)carbamoyl)-3-methoxy-3′-methyl-1′,11′-dioxo-1′,4′,5′,11′-tetrahydro-3′H,4H,7′H-spiro[isoxazole-5,6′-[2,7]methanopyrido[1,2-a][1,4]diazonin]-12′-yl)oxy)methyl 3-methylbutanoate], the EC50 in data set [1] was determined as 0.0015 µM. In data set [2], the CC50 at 5 days amounted to 16.4 µM.

For `CC1=NO[C@@]2(CC[C@H](C)N3C[C@H]2n2cc(C(=O)NCc4ccc(F)cc4F)c(=O)c(OCOC(=O)CC(C)C)c2C3=O)C1` [Example 111, (((3′S,5S,7′R)-10′-((2,4-difluorobenzyl)carbamoyl)-3,3′-dimethyl-1′,11′-dioxo-1′,4′,5′,11′-tetrahydro-3′H,4H,7′H-spiro[isoxazole-5,6′-[2,7]methanopyrido[1,2-a][1,4]diazonin]-12′-yl)oxy)methyl 3-methylbutanoate], the EC50 in data set [1] is 0.00195 µM. Further, the CC50 at 5 days in data set [2] stood at 13.8 µM.

Take `COC1=NO[C@@]2(CC[C@H](C)N3C[C@H]2n2cc(C(=O)NCc4ccc(F)cc4F)c(=O)c(OCOC(=O)CCCC(C)C)c2C3=O)C1` [Example 113, (((3′S,5S,7′R)-10′-((2,4-difluorobenzyl)carbamoyl)-3-methoxy-3′-methyl-1′,11′-dioxo-1′,4′,5′,11′-tetrahydro-3′H,4H,7′H-spiro[isoxazole-5,6′-[2,7]methanopyrido[1,2-a][1,4]diazonin]-12′-yl)oxy)methyl 5-methylhexanoate]: the EC50 in data set [1] came to 0.00178 µM. Further, the CC50 at 5 days in data set [2] turned out to be 20.3 µM.

With `COC1=NO[C@@]2(CC[C@H](C)N3C[C@H]2n2cc(C(=O)NCc4ccc(F)cc4F)c(=O)c(OCOC(=O)CCCCC(C)C)c2C3=O)C1` [Example 114, (((3′S,5S,7′R)-10′-((2,4-difluorobenzyl)carbamoyl)-3-methoxy-3′-methyl-1′,11′-dioxo-1′,4′,5′,11′-tetrahydro-3′H,4H,7′H-spiro[isoxazole-5,6′-[2,7]methanopyrido[1,2-a][1,4]diazonin]-12′-yl)oxy)methyl 6-methylheptanoate], in data set [1], the EC50 is 0.00389 µM. Also, the CC50 at 5 days in data set [2] worked out at 19.7 µM.

`CC1=NO[C@@]2(CC[C@H](C)N3C[C@H]2n2cc(C(=O)NCc4ccc(F)cc4F)c(=O)c(OCOC(=O)CCCCC(C)C)c2C3=O)C1` [Example 115, (((3′S,5S,7′R)-10′-((2,4-difluorobenzyl)carbamoyl)-3,3′-dimethyl-1′,11′-dioxo-1′,4′,5′,11′-tetrahydro-3′H,4H,7′H-spiro[isoxazole-5,6′-[2,7]methanopyrido[1,2-a][1,4]diazonin]-12′-yl)oxy)methyl 6-methylheptanoate]: the EC50 in data set [1] was 0.00363 µM. In addition, the CC50 at 5 days in data set [2] amounted to 16.2 µM.

As to `COC1=NO[C@@]2(CC[C@H](C)N3C[C@H]2n2cc(C(=O)NCc4ccc(F)cc4F)c(=O)c(OCOC(=O)CCCCCC(C)C)c2C3=O)C1` [Example 116, (((3′S,5S,7′R)-10′-((2,4-difluorobenzyl)carbamoyl)-3-methoxy-3′-methyl-1′,11′-dioxo-1′,4′,5′,11′-tetrahydro-3′H,4H,7′H-spiro[isoxazole-5,6′-[2,7]methanopyrido[1,2-a][1,4]diazonin]-12′-yl)oxy)methyl 7-methyloctanoate], the EC50 in data set [1] came out at 0.00417 µM. Further, the CC50 at 5 days in data set [2] turned out to be 27.2 µM.

As for `CC1=NO[C@@]2(CC[C@H](C)N3C[C@H]2n2cc(C(=O)NCc4ccc(F)cc4F)c(=O)c(OCOC(=O)CCCCCC(C)C)c2C3=O)C1` [Example 117, (((3′S,5S,7′R)-10′-((2,4-difluorobenzyl)carbamoyl)-3,3′-dimethyl-1′,11′-dioxo-1′,4′,5′,11′-tetrahydro-3′H,4H,7′H-spiro[isoxazole-5,6′-[2,7]methanopyrido[1,2-a][1,4]diazonin]-12′-yl)oxy)methyl 7-methyloctanoate], the EC50 in data set [1] came to 0.00284 µM. Moreover, the CC50 at 5 days in data set [2] is no less than 50 µM.

With `CC1=NO[C@@]2(CC[C@H](C)N3C[C@H]2n2cc(C(=O)NCc4ccc(F)cc4F)c(=O)c(OCOC(=O)CCCC(C)C)c2C3=O)C1` [Example 118], the EC50 in data set [1] turned out to be 0.00219 µM. Moreover, the CC50 at 5 days in data set [2] came to 18.2 µM.

For `COC1=NO[C@@]2(CC[C@H](C)N3C[C@H]2n2cc(C(=O)NCc4ccc(F)cc4F)c(=O)c(OCOC(=O)CCCCCCC(C)C)c2C3=O)C1` [Example 119, (((3′S,5S,7′R)-10′-((2,4-difluorobenzyl)carbamoyl)-3-methoxy-3′-methyl-1′,11′-dioxo-1′,4′,5′,11′-tetrahydro-3′H,4H,7′H-spiro[isoxazole-5,6′-[2,7]methanopyrido[1,2-a][1,4]diazonin]-12′-yl)oxy)methyl 8-methylnonanoate], the EC50 in data set [1] was found to be 0.00287 µM. Moreover, the CC50 at 5 days in data set [2] amounted to 43.8 µM.

In the case of `CC1=NO[C@@]2(CC[C@H](C)N3C[C@H]2n2cc(C(=O)NCc4ccc(F)cc4F)c(=O)c(OCOC(=O)CCCCCCC(C)C)c2C3=O)C1` [Example 120, (((3′S,5S,7′R)-10′-((2,4-difluorobenzyl)carbamoyl)-3,3′-dimethyl-1′,11′-dioxo-1′,4′,5′,11′-tetrahydro-3′H,4H,7′H-spiro[isoxazole-5,6′-[2,7]methanopyrido[1,2-a][1,4]diazonin]-12′-yl)oxy)methyl 8-methylnonanoate], in data set [1], the EC50 worked out at 0.00204 µM. The CC50 at 5 days in data set [2] worked out at 42.3 µM.

For `COC(=O)Oc1c2n(cc(C(=O)NCc3ccc(F)cc3F)c1=O)[C@@H]1CN(C2=O)[C@@H](C)CC[C@]12CC(C)=NO2` [Example 121, (3′S,5S,7′R)-10′-((2,4-difluorobenzyl)carbamoyl)-3,3′-dimethyl-1′,11′-dioxo-1′,4′,5′,11′-tetrahydro-3′H,4H,7′H-spiro[isoxazole-5,6′-[2,7]methanopyrido[1,2-a][1,4]diazonin]-12′-yl methyl carbonate], the EC50 in data set [1] was found to be 0.00117 µM. The cytotoxic concentration (CC50) at 5 days in data set [2] amounted to 18.9 µM.

Regarding `CCOC(=O)Oc1c2n(cc(C(=O)NCc3ccc(F)cc3F)c1=O)[C@@H]1CN(C2=O)[C@@H](C)CC[C@]12CC(C)=NO2` [Example 123, (3′S,5S,7′R)-10′-((2,4-difluorobenzyl)carbamoyl)-3,3′-dimethyl-1′,11′-dioxo-1′,4′,5′,11′-tetrahydro-3′H,4H,7′H-spiro[isoxazole-5,6′-[2,7]methanopyrido[1,2-a][1,4]diazonin]-12′-yl ethyl carbonate], in data set [1], the EC50 stood at 0.00173 µM. The CC50 at 5 days in data set [2] was determined as 14.1 µM.

For `CCOC(=O)Oc1c2n(cc(C(=O)NCc3ccc(F)cc3F)c1=O)[C@@H]1CN(C2=O)[C@@H](C)CC[C@]12CC(OC)=NO2` [Example 124, (3′S,5S,7′R)-10′-((2,4-difluorobenzyl)carbamoyl)-3-methoxy-3′-methyl-1′,11′-dioxo-1′,4′,5′,11′-tetrahydro-3′H,4H,7′H-spiro[isoxazole-5,6′-[2,7]methanopyrido[1,2-a][1,4]diazonin]-12′-yl ethyl carbonate], the EC50 in data set [1] was 0.000898 µM. For the same compound, in data set [2], the 50% cytotoxic concentration (CC50) at 5 days came to 17.1 µM.

On to `CCCCOC(=O)Oc1c2n(cc(C(=O)NCc3ccc(F)cc3F)c1=O)[C@@H]1CN(C2=O)[C@@H](C)CC[C@]12CC(C)=NO2` [Example 127, butyl butyl ((3′S,5S,7′R)-10′-((2,4-difluorobenzyl)carbamoyl)-3,3′-dimethyl-1′,11′-dioxo-1′,4′,5′,11′-tetrahydro-3′H,4H,7′H-spiro[isoxazole-5,6′-[2,7]methanopyrido[1,2-a][1,4]diazonin]-12′-yl) carbonate], for which the EC50 in data set [1] turned out to be 0.000201 µM. In addition, the CC50 at 5 days in data set [2] turned out to be 13.3 µM.

Regarding `CCCCOC(=O)Oc1c2n(cc(C(=O)NCc3ccc(F)cc3F)c1=O)[C@@H]1CN(C2=O)[C@@H](C)CC[C@]12CC(OC)=NO2` [Example 128, butyl ((3′S,5S,7′R)-10′-((2,4-difluorobenzyl)carbamoyl)-3-methoxy-3′-methyl-1′,11′-dioxo-1′,4′,5′,11′-tetrahydro-3′H,4H,7′H-spiro[isoxazole-5,6′-[2,7]methanopyrido[1,2-a][1,4]diazonin]-12′-yl) carbonate], the EC50 in data set [1] was 0.00021 µM. In data set [2], the CC50 at 5 days is 19.3 µM.

For the compound `CCCCCOC(=O)Oc1c2n(cc(C(=O)NCc3ccc(F)cc3F)c1=O)[C@@H]1CN(C2=O)[C@@H](C)CC[C@]12CC(C)=NO2` [Example 129, (3′S,5S,7′R)-10′-((2,4-difluorobenzyl)carbamoyl)-3,3′-dimethyl-1′,11′-dioxo-1′,4′,5′,11′-tetrahydro-3′H,4H,7′H-spiro[isoxazole-5,6′-[2,7]methanopyrido[1,2-a][1,4]diazonin]-12′-yl pentyl carbonate], the EC50 in data set [1] came to 0.00178 µM. Besides, the CC50 at 5 days in data set [2] was found to be 21.7 µM.
